This is an account of results in ChEMBL document CHEMBL3244389, “Cephalosporin degradations” (J Med Chem, 1977).

A short description of data set [1]: Retardation factor of the compound in deionized water at 1 g at pH 3.3 after 90 mins by TLC analysis. The settings on record: pH 3.3, 1.5 h. It is filed as physicochemical.
A short description of data set [2]: Drug degradation in oxygen-18 enriched water assessed as 5,3-formyl-3,6-dihydro-6-phenyl-2,5(lH,4H)-pyrazinedione level at 60 mg by mass spectroscopic analysis. The settings on record: in vivo.
Data set [3] in a line: Drug degradation in deionized water assessed as 3-hydroxy-4-methyl-2(5H)-thiophenone level at 100 mg at pH 3.3 after 90 mins by IR/TLC analysis. It is filed as physicochemical. The settings on record: pH 3.3, 1.5 h.
Data set [4] in a line: Drug degradation in deionized water assessed as 5,3-formyl-3,6-dihydro-6-phenyl-2,5(lH,4H)-pyrazinedione level at 100 mg at pH 3.3 after 90 mins by IR/TLC analysis. The conditions noted are these: pH 3.3, 1.5 h. It is filed as physicochemical.
Data set [5] can be described thus: Drug recovery in ICR mouse feces at 1.6 mg/ml, po after 24 hrs. The conditions noted are these: faeces.
A short description of data set [6]: Drug recovery in Purdue-Wistar rat feces at 1.6 mg/ml, po after 24 hrs. The settings on record: faeces.
The subject of data set [7] is Mus musculus. The data set is described as follows: Toxicity in po dosed ICR mouse. Format: organism-based. The settings on record: in vivo.

Take `O=CC1NC(=O)C(c2ccccc2)NC1=O` (stereo not drawn): the Rf in data set [1] came out at 0.78. On the same count and under the same terms, for `CC1=C(O)C(=O)SC1` the value was 0.91. Regarding `CC1CSC(C2NC(=O)C(c3ccccc3)NC2=O)N=C1C(=O)[O-].[Na+]` (stereo not drawn), the Stability entry in data set [2], in data set [3] and in data set [4] was “Unstable” throughout.

For `CC1=C(C(=O)O)N2C(=O)[C@@H](NC(=O)[C@H](N)c3ccccc3)[C@H]2SC1` [CEPHALEXIN ANHYDROUS], the dose excreted at 24 h in data set [5] and in data set [6] was 99% throughout. For the compound `CC1=C(C(=O)O)N2C(=O)[C@@H](NC(=O)[C@H](N)c3ccccc3)[C@H]2SC1.O` [CEPHALEXIN], in data set [7], the LD was greater than 5000 mg/kg.
